{
  "source": "patent US20050107432A1",
  "about": "“Sigma receptor binder containing indanone derivative” (priority 2002, published 2005)",
  "target": "Sigma receptor",
  "assay": "Sigma receptor binding assay (3H-DTG, guinea pig brain crude membrane fraction)",
  "conditions": "for IC50: inhibition of 3H-DTG binding to guinea pig brain crude membrane fraction, 25° C., 1 hour; for sigma receptor binding action: result in words, no value given",
  "experimental": "Sigma Receptor Binding Assay\n(1) Preparation of Receptor\nTen male guinea pigs (Crj, Hartley, from Charles River Japan, Inc.) (body weight: 234 g to 260 g) were decapitated, exsanguinated and died. The brain was immediately removed, homogenized with ten volumes of 50 mM Tris-HCl (pH 7.4) using a Teflon homogenizer and was centrifuged at a rate of 50000× g at 4° C. for 20 minutes. The washing procedure was repeated once more under the same conditions, and the resulting crude membrane fraction was subjected to the assay.\nThe filter paper was transferred to a vial for radioactivity measurement, mixed with 5 mL of a liquid scintillation cocktail (Atomlight, from PACKARD), and the radioactivity on the filter was determined by a liquid scintillation counter (Model 1500, from PACKARD) for 2 minutes. The specific binding and the non-specific binding in the absence of the test compound were determined in the same way as above except for using 50% DMSO solution instead of the test compound and using a 100 μM Haloperidol solution instead of the test compound, respectively.\n(3) Determination of Inhibition\nThe inhibitions of the test compound at individual concentrations were determined from the ratio of the specific binding in the presence of the test compound to the specific binding in the absence thereof. The dose-response curve was regressed according to a logit-log model in which the ratio of the specific binding in the presence of the test compound to the specific binding in the absence thereof was subjected to logit transformation and plotted against the common logarithm value of each concentration.",
  "note": "Structures can show the parent of a compound that is named as a salt.",
  "data": [
    {"smiles": "CCOc1cc2c(cc1OCC)C(=O)C(CC1CCN(Cc3ccc(Cl)cc3)CC1)C2", "note": "(stereo not shown) [Example 13, 1-(4-chlorobenzyl)-4-[(5,6-diethoxy-1-indanon)-2-yl]methylpiperidine hydrochloride]", "values": [
      {"measurement": "IC50", "result": 1.6, "unit": "nM"}
    ]},
    {"smiles": "O=C1c2ccc(C3CCCCC3)cc2CC1CC1CCN(Cc2ccccc2)CC1", "note": "(stereo not shown) [Example 22, hydrochloride]", "values": [
      {"measurement": "IC50", "result": 1.3, "unit": "nM"}
    ]},
    {"smiles": "COc1cc2c(cc1OC)C(=O)C(=CC1CCN(Cc3ccccc3)CC1)C2.Cl", "note": "[Example 25, 1-Benzyl-4-[(5,6-dimethoxy-1-indanon)-2-ylidene]methylpiperidine hydrochloride]", "values": [
      {"measurement": "sigma receptor binding action", "result": "found to have a sigma receptor binding action"}
    ]},
    {"smiles": "CCOc1cc2c(cc1OCC)C(=O)C(=CC1CCN(Cc3ccccc3)CC1)C2.Cl", "note": "[Example 26, 1-Benzyl-4-[(5,6-diethoxy-1-indanon)-2-ylidene]methylpiperidine hydrochloride]", "values": [
      {"measurement": "sigma receptor binding action", "result": "found to have a sigma receptor binding action"}
    ]},
    {"smiles": "Cl.O=C1c2ccccc2CC1CC1CCN(Cc2ccccc2)CC1", "note": "(stereo not shown) [Example 27, 1-Benzyl-4-[(1-indanon)-2-yl]methylpiperidine hydrochloride]", "values": [
      {"measurement": "IC50", "result": 1.7, "unit": "nM"},
      {"measurement": "sigma receptor binding action", "result": "found to have a sigma receptor binding action"}
    ]},
    {"smiles": "COc1ccc2c(c1)CC(CC1CCN(Cc3ccccc3)CC1)C2=O.Cl", "note": "(stereo not shown) [Example 28, 1-Benzyl-4-[(5-methoxy-1-indanon)-2-yl]methylpiperidine hydrochloride]", "values": [
      {"measurement": "IC50", "result": 2.3, "unit": "nM"},
      {"measurement": "sigma receptor binding action", "result": "found to have a sigma receptor binding action"}
    ]},
    {"smiles": "CCOc1cc2c(cc1OC)C(=O)C(CC1CCN(Cc3ccccc3)CC1)C2.Cl", "note": "(stereo not shown) [Example 29, 1-Benzyl-4-[(5-ethoxy-6-methoxy-1-indanon)-2-yl]methylpiperidine hydrochloride]", "values": [
      {"measurement": "sigma receptor binding action", "result": "found to have a sigma receptor binding action"}
    ]},
    {"smiles": "CCOc1cc2c(cc1OCC)C(=O)C(CC1CCN(Cc3ccccc3)CC1)C2.Cl", "note": "(stereo not shown) [Example 30, 1-Benzyl-4-[(5,6-diethoxy-1-indanon)-2-yl]methylpiperidine hydrochloride]", "values": [
      {"measurement": "IC50", "result": 3.7, "unit": "nM"},
      {"measurement": "sigma receptor binding action", "result": "found to have a sigma receptor binding action"}
    ]},
    {"smiles": "CCCOc1cc2c(cc1OCCC)C(=O)C(CC1CCN(Cc3ccccc3)CC1)C2.Cl", "note": "(stereo not shown) [Example 31, 1-Benzyl-4-[[5,6-di(1-propyloxy)-1-indanon)-2-yl]methylpiperidine hydrochloride]", "values": [
      {"measurement": "sigma receptor binding action", "result": "found to have a sigma receptor binding action"}
    ]},
    {"smiles": "COc1cc2c(cc1OC)C(=O)C(CCC1CCN(Cc3ccccc3)CC1)C2.Cl", "note": "(stereo not shown) [Example 32, 1-Benzyl-4-[2-[(5,6-dimethoxy-1-indanon)-2-yl]ethyl]piperidine hydrochloride]", "values": [
      {"measurement": "sigma receptor binding action", "result": "found to have a sigma receptor binding action"}
    ]},
    {"smiles": "COc1cc2c(cc1OC)C(=O)C(CCCC1CCN(Cc3ccccc3)CC1)C2.Cl", "note": "(stereo not shown) [Example 33, 1-Benzyl-4-[3-[(5,6-dimethoxy-1-indanon)-2-yl]propyl]piperidine hydrochloride]", "values": [
      {"measurement": "IC50", "result": 7.6, "unit": "nM"},
      {"measurement": "sigma receptor binding action", "result": "found to have a sigma receptor binding action"}
    ]},
    {"smiles": "COc1cc2c(cc1OC)C(=O)C(CC1CCN(Cc3cccc(F)c3)CC1)C2.Cl", "note": "(stereo not shown) [Example 34, 1-(3-Fluorobenzyl)-4-[(5,6-dimethoxy-1-indanon)-2-yl]methylpiperidine hydrochloride]", "values": [
      {"measurement": "sigma receptor binding action", "result": "found to have a sigma receptor binding action"}
    ]},
    {"smiles": "COc1cc2c(cc1OC)C(=O)C(CC1CCN(Cc3cccc(C)c3)CC1)C2.Cl", "note": "(stereo not shown) [Example 35, 1-(3-Methylbenzyl)-4-[(5,6-dimethoxy-1-indanon)-2-yl]methylpiperidine hydrochloride]", "values": [
      {"measurement": "sigma receptor binding action", "result": "found to have a sigma receptor binding action"}
    ]},
    {"smiles": "COc1cc2c(cc1OC)C(=O)C(CC1CCN(CC3CCCCC3)CC1)C2.Cl", "note": "(stereo not shown) [Example 36, 1-Cyclohexylmethyl-4-[(5,6-dimethoxy-1-indanon)-2-yl]methylpiperidine hydrochloride]", "values": [
      {"measurement": "sigma receptor binding action", "result": "found to have a sigma receptor binding action"}
    ]},
    {"smiles": "CCOc1cc2c(cc1OCC)C(=O)C(F)(CC1CCN(Cc3cccc(F)c3)CC1)C2", "note": "(stereo not shown) [Example 41, 1-(3-fluorobenzyl)-4-[(5,6-diethoxy-2-fluoro-1-indanon)-2-yl]methylpiperidine hydrochloride]", "values": [
      {"measurement": "IC50", "result": 3, "unit": "nM"}
    ]},
    {"smiles": "CCOc1cc2c(cc1OCC)C(=O)C(F)(CC1CCN(Cc3ccccc3Cl)CC1)C2", "note": "(stereo not shown) [Example 43, 1-(2-chlorobenzyl)-4-[(5,6-diethoxy-2-fluoro-1-indanon)-2-yl]methylpiperidine hydrochloride]", "values": [
      {"measurement": "IC50", "result": 1.5, "unit": "nM"}
    ]},
    {"smiles": "CCOc1cc2c(cc1OCC)C(=O)C(F)(CC1CCN(Cc3ccc(C)cc3)CC1)C2", "note": "(stereo not shown) [Example 48, 1-(4-methylbenzyl)-4-[(5,6-diethoxy-2-fluoro-1-indanon)-2-yl]methylpiperidine hydrochloride]", "values": [
      {"measurement": "IC50", "result": 2.8, "unit": "nM"}
    ]},
    {"smiles": "CCOc1cc2c(cc1OCC)C(=O)C(F)(CC1CCN(CC3CCCCCC3)CC1)C2", "note": "(stereo not shown) [Example 51, 1-cycloheptylmethyl-4-[(5,6-diethoxy-2-fluoro-1-indanon)-2-yl]methylpiperidine hydrochloride]", "values": [
      {"measurement": "IC50", "result": 1.1, "unit": "nM"}
    ]},
    {"smiles": "CCOc1cc2c(cc1OCC)C(=O)C(F)(CC1CCN(CC3CCCCCCC3)CC1)C2", "note": "(stereo not shown) [Example 52, 1-cyclooctylmethyl-4-[(5,6-diethoxy-2-fluoro-1-indanon)-2-yl]methylpiperidine hydrochloride]", "values": [
      {"measurement": "IC50", "result": 1.1, "unit": "nM"}
    ]},
    {"smiles": "Cl.O=C1c2ccccc2CC1(F)CC1CCN(Cc2ccccc2)CC1", "note": "(stereo not shown) [Example 54, 1-Benzyl-4-[(2-fluoro-1-indanon)-2-yl]methylpiperidine hydrochloride]", "values": [
      {"measurement": "sigma receptor binding action", "result": "found to have a sigma receptor binding action"}
    ]},
    {"smiles": "COc1ccc2c(c1)CC(F)(CC1CCN(Cc3ccccc3)CC1)C2=O.Cl", "note": "(stereo not shown) [Example 55, 1-Benzyl-4-[(5-methoxy-2-fluoro-1-indanon)-2-yl]methylpiperidine hydrochloride]", "values": [
      {"measurement": "sigma receptor binding action", "result": "found to have a sigma receptor binding action"}
    ]},
    {"smiles": "COc1cc2c(cc1OC)C(=O)C(F)(CC1CCN(Cc3ccccc3)CC1)C2.Cl", "note": "(stereo not shown) [Example 56, 1-Benzyl-4-[(5,6-dimethoxy-2-fluoro-1-indanon)-2-yl]methylpiperidine hydrochloride]", "values": [
      {"measurement": "sigma receptor binding action", "result": "found to have a sigma receptor binding action"}
    ]},
    {"smiles": "CCOc1cc2c(cc1OCC)C(=O)C(F)(CC1CCN(Cc3ccccc3)CC1)C2.Cl", "note": "(stereo not shown) [Example 57, 1-Benzyl-4-[(5,6-diethoxy-2-fluoro-1-indanon)-2-yl]methylpiperidine hydrochloride]", "values": [
      {"measurement": "sigma receptor binding action", "result": "found to have a sigma receptor binding action"}
    ]},
    {"smiles": "CCCOc1cc2c(cc1OCCC)C(=O)C(F)(CC1CCN(Cc3ccccc3)CC1)C2.Cl", "note": "(stereo not shown) [Example 58, 1-Benzyl-4-[[5,6-di(1-propyloxy)-2-fluoro-1-indanon]-2-yl]methylpiperidine hydrochloride]", "values": [
      {"measurement": "IC50", "result": 1.3, "unit": "nM"},
      {"measurement": "sigma receptor binding action", "result": "found to have a sigma receptor binding action"}
    ]},
    {"smiles": "COc1cc2c(cc1OC)C(=O)C(F)(C1CCN(Cc3ccccc3)CC1)C2.Cl", "note": "(stereo not shown) [Example 59, 1-Benzyl-4-[(5,6-dimethoxy-2-fluoro-1-indanon)-2-yl]piperidine]", "values": [
      {"measurement": "sigma receptor binding action", "result": "found to have a sigma receptor binding action"}
    ]},
    {"smiles": "COc1cc2c(cc1OC)C(=O)C(F)(CCC1CCN(Cc3ccccc3)CC1)C2", "note": "(stereo not shown) [Example 60, 1-Benzyl-4-[2-[(5,6-dimethoxy-2-fluoro-1-indanon)-2-yl]ethyl]piperidine]", "values": [
      {"measurement": "sigma receptor binding action", "result": "found to have a sigma receptor binding action"}
    ]},
    {"smiles": "COc1cc2c(cc1OC)C(=O)C(F)(CCCC1CCN(Cc3ccccc3)CC1)C2.Cl", "note": "(stereo not shown) [Example 61, 1-Benzyl-4-[3-[(5,6-dimethoxy-2-fluoro-1-indanon)-2-yl]propyl]piperidinepiperidine hydrochloride]", "values": [
      {"measurement": "sigma receptor binding action", "result": "found to have a sigma receptor binding action"}
    ]},
    {"smiles": "COc1cc2c(cc1OC)C(=O)C(F)(CC1CCN(Cc3ccccc3F)CC1)C2.Cl", "note": "(stereo not shown) [Example 62, 1-(2-Fluorobenzyl)-4-[(5,6-dimethoxy-2-fluoro-1-indanon)-2-yl]methylpiperidine hydrochloride]", "values": [
      {"measurement": "sigma receptor binding action", "result": "found to have a sigma receptor binding action"}
    ]},
    {"smiles": "COc1cc2c(cc1OC)C(=O)C(F)(CC1CCN(Cc3cccc(F)c3)CC1)C2.Cl", "note": "(stereo not shown) [Example 63, 1-(3-Fluorobenzyl)-4-[(5,6-dimethoxy-2-fluoro-1-indanon)-2-yl]methylpiperidine hydrochloride]", "values": [
      {"measurement": "sigma receptor binding action", "result": "found to have a sigma receptor binding action"}
    ]},
    {"smiles": "COc1cc2c(cc1OC)C(=O)C(F)(CC1CCN(Cc3ccc(F)cc3)CC1)C2.Cl", "note": "(stereo not shown) [Example 64, 1-(4-Fluorobenzyl)-4-[(5,6-dimethoxy-2-fluoro-1-indanon)-2-yl]methylpiperidine hydrochloride]", "values": [
      {"measurement": "sigma receptor binding action", "result": "found to have a sigma receptor binding action"}
    ]},
    {"smiles": "COc1cc2c(cc1OC)C(=O)C(F)(CC1CCN(Cc3cccc(C)c3)CC1)C2.Cl", "note": "(stereo not shown) [Example 65, 1-(3-Methylbenzyl)-4-[(5,6-dimethoxy-2-fluoro-1-indanon)-2-yl]methylpiperidine hydrochloride]", "values": [
      {"measurement": "sigma receptor binding action", "result": "found to have a sigma receptor binding action"}
    ]},
    {"smiles": "COc1cc2c(cc1OC)C(=O)C(F)(CC1CCN(CC3CCCCC3)CC1)C2.Cl", "note": "(stereo not shown) [Example 66, 1-Cyclohexylmethyl-4-[(5,6-dimethoxy-2-fluoro-1-indanon)-2-yl]methylpiperidine hydrochloride]", "values": [
      {"measurement": "sigma receptor binding action", "result": "found to have a sigma receptor binding action"}
    ]}
  ]
}
